Measurements as given in US20090105477A1, “Quinazoline Protein Tyrosine Phosphatase Inhibitors” (priority 2004, published 2009).

Target: T1, Human PTP1B (1-321) (Homo sapiens, UniProt P18031)
T1 construct: Human PTP1B (1-321) was cloned from a human cDNA library; made in house; host or cells: E. coli
T1 sequence (P18031 1-321): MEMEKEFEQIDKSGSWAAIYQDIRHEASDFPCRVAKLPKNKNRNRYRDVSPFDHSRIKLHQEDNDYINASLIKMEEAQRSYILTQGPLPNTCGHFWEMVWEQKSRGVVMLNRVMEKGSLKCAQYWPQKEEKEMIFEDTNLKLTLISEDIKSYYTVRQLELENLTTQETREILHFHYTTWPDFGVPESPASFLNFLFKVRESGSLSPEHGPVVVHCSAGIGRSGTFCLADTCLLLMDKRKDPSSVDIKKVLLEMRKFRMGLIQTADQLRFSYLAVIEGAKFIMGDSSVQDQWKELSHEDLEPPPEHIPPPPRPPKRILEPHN
Test: In Vitro Inhibition of PTP1B (PTPase assay)
Format: biochemical
Details: PTP1B inhibitory activity, procedures of Example 150
Description: Human PTP1B (1-321) was cloned from a human cDNA library using conventional molecular biology techniques. The cDNA sequence was identical to the published human PTP1B sequence (Accession number M33689). The protein was expressed and purified from E. coli as described by Barford D. et. al J. Mol Biol (1994) 239, 726-730.
The measurement of PTPase activity was carried out using one of two methods:
The first method for the measurement of PTP1B inhibitory activity a tyrosine phosphorylated peptide based on the amino acid sequence of insulin receptor tyrosine autophosphorylation site 1146 (TRDI(pY)E) was used as substrate. The reaction conditions were as follows:
PTP1B (0.5-2 nM) was incubated with compound for 15 min in buffer containing 37.5 mM Bis-Tris buffer pH 6.2, 140 mMNaCl, 0.05% BSA and 2 mM DTT. The reaction was started by the addition of 50 μM substrate. After 20 min at room temperature (22-25° C.), the reaction was stopped with KOH and the amount of free phosphate measured using Malachite Green as previously described (Harder et al. 1994 Biochem J. 298; 395).
The second method was used for the measurement of general PTPase inhibitory activity across a panel of PTPases the substrate (6,8-difluoro-4-methylumbelliferyl phosphate (DiFMUP; from Molecular Probes) was used at the Km for each enzyme. The buffer conditions were identical as in the Malachite Green assay. The reaction was stopped with KOH. In this case the dephosphoryated product becomes fluorescent and the fluorescense read (Excitiation: […]/Emmission: 460 nM).

Compound | IC50
CNc1nc(N)nc2cc(-c3ccccc3C)ccc12 [Example 6, N4-Methyl-7-o-tolyl-quinazoline-2,4-diamine] | 3150 nM
CNc1nc(N)nc2cc(-c3c(C)cccc3C)ccc12 [Example 8, 7-(2,6-Dimethyl-phenyl)-N4-methyl-quinazoline-2,4-diamine] | 790 nM
Cc1cccc(C)c1-c1ccc2c(N(C)C)nc(N)nc2c1 [Example 9, 7-(2,6-Dimethyl-phenyl)-N4,N4-dimethyl-quinazoline-2,4-diamine] | 14000 nM
CCNc1nc(N)nc2cc(-c3c(C)cccc3C)ccc12 [Example 14, 7-(2,6-Dimethyl-phenyl)-N4-ethyl-quinazoline-2,4-diamine] | 2480 nM
CNc1nc(N)nc2cc(-c3c(OC)cccc3OC)ccc12 [Example 21, 7-(2,6-Dimethoxy-phenyl)-N4-methyl-quinazoline-2,4-diamine] | 3500 nM
CNc1nc(N)nc2cc(-c3c(Cl)cccc3Cl)ccc12 [Example 24, 7-(2,6-Dichloro-phenyl)-N4-methyl-quinazoline-2,4-diamine] | 1110 nM
Cc1cccc(C)c1-c1ccc2c(NCCO)nc(N)nc2c1 [Example 36, 2-[2-Amino-7-(2,6-dimethyl-phenyl)-quinazolin-4-ylamino]-ethanol] | 3170 nM
Nc1nc(NCCO)c2ccc(-c3ccccc3F)cc2n1 [Example 41, 2-[2-Amino-7-(2-fluoro-phenyl)-quinazolin-4-ylamino]-ethanol] | 19000 nM
Cc1ccccc1-c1ccc2c(NCCO)nc(N)nc2c1 [Example 43, 2-(2-Amino-7-o-tolyl-quinazolin-4-ylamino)-ethanol] | 6020 nM
Nc1nc(NCCO)c2ccc(-c3ccccc3C(F)(F)F)cc2n1 [Example 57, 2-[2-Amino-7-(2-trifluoromethyl-phenyl)-quinazolin-4-ylamino]-ethanol] | 3340 nM
CNc1nc(N)nc2cc(-c3ccccc3SC)ccc12 [Example 58, N4-Methyl-7-(2-methylsulfanyl-phenyl)-quinazoline-2,4-diamine] | 1010 nM
CNc1nc(N)nc2cc(-c3ccc(F)cc3C)ccc12 [Example 69, 7-(4-Fluoro-2-methyl-phenyl)-N4-methyl-quinazoline-2,4-diamine] | 4040 nM
CNc1nc(N)nc2cc(-c3ccccc3[S+](C)[O-])ccc12 (stereo not drawn) [Example 71, 7-(2-Methanesulfinyl-phenyl)-N4-methyl-quinazoline-2,4-diamine] | 2780 nM
CNc1nc(N)nc2cc(-c3ccccc3S(C)(=O)=O)ccc12 [Example 72, 7-(2-Methanesulfonyl-phenyl)-N4-methyl-quinazoline-2,4-diamine] | 1440 nM
CSc1ccccc1-c1ccc2c(NCCO)nc(N)nc2c1 [Example 75, 2-[2-Amino-7-(2-methylsulfanyl-phenyl)-quinazolin-4-ylamino]-ethanol] | 4180 nM
CCS(=O)(=O)c1ccccc1-c1ccc2c(NC)nc(N)nc2c1 [Example 82, 7-(2-Ethanesulfonyl-phenyl)-N4-methyl-quinazoline-2,4-diamine] | 1390 nM
CNc1nc(N)nc2cc(-c3c(C)cccc3Cl)ccc12 [Example 89, 7-(2-Chloro-6-methyl-phenyl)-N4-methyl-quinazoline-2,4-diamine] | 1460 nM
CNc1nc(N)nc2cc(-c3ccccc3S(=O)(=O)N(C)C)ccc12 [Example 120, 2-(2-aAmino-4-methylamino-quinazolin-7-yl)-N,N-dimethyl-benzenesulfonamide] | 1600 nM
CCNS(=O)(=O)c1ccccc1-c1ccc2c(NC)nc(N)nc2c1 [Example 125] | 1890 nM
CNc1nc(N)nc2cc(-c3ccccc3S(=O)(=O)NC)ccc12 [Example 126, N-methyl-2-(2-amino-4-methylamino-quinazolin-7-yl)-benzenesulfonamide] | 1940 nM

System: not given
Test: not given
Details: not given

Compound | melting point
CNc1nc(N)nc2cc(-c3ccccc3S(=O)(=O)NC)ccc12 [Example 126, N-methyl-2-(2-amino-4-methylamino-quinazolin-7-yl)-benzenesulfonamide] | 316 to 317 °C
